In ChEMBL document CHEMBL5705903, “A DNA Hypomethylation Signature Predicts Antitumor Activity of LSD1 Inhibitors in SCLC” (Cancer Cell, 2015):
Active and inactive are the calls of the source. The calls are words filed in the database; no cut-off is given here.

How the values were obtained:
[1] = Effect on cleaved PARP level in human NCI-H69 cells assessed as relative expression at 100 nM measured after 14 days by Western blot analysis (reference value: 0.03); assay type: functional; conditions: time 14 day
[2] = Effect on cleaved PARP level in human NCI-H524 cells assessed as relative expression at 1000 nM measured after 10 days by Western blot analysis (reference value: 0.95); assay type: functional; conditions: time 10 day
[3] = Effect on cleaved PARP level in human NCI-H889 cells assessed as relative expression at 1000 nM measured after 14 days by Western blot analysis (reference value: 0.94); assay type: functional; conditions: time 14 day
[4] = Effect on cleaved PARP level in human NCI-H889 cells assessed as fold change at 10 nM measured after 10 days by Western blot analysis (reference value: 1.00); assay type: functional; conditions: time 10 day
[5] = Effect on cleaved PARP level in human NCI-H524 cells assessed as fold change at 1000 nM measured after 7 days by Western blot analysis (reference value: 1.00); assay type: functional; conditions: time 7 day
[6] = Effect on cleaved PARP level in human NCI-H146 cells assessed as fold change at 1000 nM measured after 14 days by Western blot analysis (reference value: 1.00); assay type: functional; conditions: time 14 day
[7] = Effect on cleaved PARP level in human NCI-H526 cells assessed as fold change at 1000 nM measured after 7 days by Western blot analysis (reference value: 1.00); assay type: functional; conditions: time 7 day
[8] = Effect on cleaved PARP level in human NCI-H146 cells assessed as relative expression at 100 nM measured after 14 days by Western blot analysis (reference value: 2.42); assay type: functional; conditions: time 14 day
[9] = Effect on cleaved PARP level in human NCI-H1417 cells assessed as relative expression at 1000 nM measured after 7 days by Western blot analysis (reference value: 0.10); assay type: functional; conditions: time 7 day
[10] = Antitumor activity against human PDX L44 cells xenografted in mouse assessed as tumor growth inhibition at 1.5 mg/kg administered daily measured for 30 days relative to control; assay type: functional; conditions: PDX LX44, 720 h, time 30 day, read-out: TGI
[11] = target: D-amino-acid oxidase (Homo sapiens, UniProt P14920); assay: Binding affinity to D-amino acid oxidase (unknown origin) assessed as apparent inhibition constant; conditions: read-out: Ki(app)
D-amino-acid oxidase, sequence (P14920 whole entry): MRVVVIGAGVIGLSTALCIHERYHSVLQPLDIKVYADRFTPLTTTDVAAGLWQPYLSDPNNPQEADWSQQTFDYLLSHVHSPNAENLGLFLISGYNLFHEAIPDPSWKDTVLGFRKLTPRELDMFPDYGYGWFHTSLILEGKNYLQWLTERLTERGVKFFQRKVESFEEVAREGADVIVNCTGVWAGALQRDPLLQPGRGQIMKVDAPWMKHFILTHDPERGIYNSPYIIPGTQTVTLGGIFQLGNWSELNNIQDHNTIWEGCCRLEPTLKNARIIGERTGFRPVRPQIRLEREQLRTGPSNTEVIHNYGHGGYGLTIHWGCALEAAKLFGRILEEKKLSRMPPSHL

[12] = Toxicity in dog assessed as thrombocytopenia measured for 28 days; set-up: species or system Canis lupus familiaris; conditions: in vivo, 672 h, time 28 day
[13] = Effect on cleaved PARP level in human NCI-H510 cells assessed as relative expression at 10 nM measured after 10 days by Western blot analysis (reference value: 0.02); assay type: functional, NCI-H510A; conditions: time 10 day
[14] = Effect on cleaved PARP level in human NCI-H1417 cells assessed as fold change at 10 nM measured after 10 days by Western blot analysis (reference value: 1.00); assay type: functional; conditions: time 10 day
[15] = Effect on cleaved PARP level in human NCI-H510 cells assessed as fold change at 1000 nM measured after 14 days by Western blot analysis (reference value: 1.00); assay type: functional, NCI-H510A; conditions: time 14 day
[16] = Effect on cleaved PARP level in human NCI-H1694 cells assessed as relative expression at 1000 nM measured after 14 days by Western blot analysis (reference value: 0.25); assay type: functional; conditions: time 14 day
[17] = Effect on cleaved PARP level in human NCI-H146 cells assessed as relative expression at 100 nM measured after 7 days by Western blot analysis (reference value: […]); assay type: functional; conditions: time 7 day
[18] = Effect on cleaved PARP level in human NCI-H889 cells assessed as fold change at 1000 nM measured after 10 days by Western blot analysis (reference value: 1.00); assay type: functional; conditions: time 10 day
[19] = system: NCI-H526; assay: Effect on NCAM gene expression in human NCI-H526 cells at 1 uM measured after 4 days by qRT-PCR analysis; assay type: functional, cell-based; conditions: time 4.0 day
[20] = Effect on cleaved PARP level in human NCI-H1694 cells assessed as relative expression at 100 nM measured after 7 days by Western blot analysis (reference value: 0.25); assay type: functional; conditions: time 7 day
[21] = target: Amine oxidase [flavin-containing] B (Homo sapiens, UniProt P27338); assay: Inhibition of MAO-B (unknown origin)
Amine oxidase [flavin-containing] B, sequence (P27338 whole entry): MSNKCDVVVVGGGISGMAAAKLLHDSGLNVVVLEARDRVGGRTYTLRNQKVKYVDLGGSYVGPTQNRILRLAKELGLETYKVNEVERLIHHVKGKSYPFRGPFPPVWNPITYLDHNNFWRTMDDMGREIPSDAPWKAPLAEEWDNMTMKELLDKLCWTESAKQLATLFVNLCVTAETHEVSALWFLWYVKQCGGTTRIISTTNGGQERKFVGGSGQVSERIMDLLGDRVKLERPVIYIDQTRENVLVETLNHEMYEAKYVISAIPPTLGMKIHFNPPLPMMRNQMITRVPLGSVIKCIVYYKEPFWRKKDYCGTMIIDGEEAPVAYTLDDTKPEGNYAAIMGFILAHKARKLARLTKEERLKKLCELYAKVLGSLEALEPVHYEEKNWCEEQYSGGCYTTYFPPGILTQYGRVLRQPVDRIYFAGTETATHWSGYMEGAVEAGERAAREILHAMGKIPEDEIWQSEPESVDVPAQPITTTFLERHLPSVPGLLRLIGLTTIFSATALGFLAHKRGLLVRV

[22] = Effect on cleaved PARP level in human NCI-H146 cells assessed as fold change at 100 nM measured after 14 days by Western blot analysis (reference value: 1.00); assay type: functional; conditions: time 14 day
[23] = target: Lysine-specific histone demethylase 1A (Homo sapiens, UniProt O60341); conditions: NCI-H526, dose 1-10000 nM, time 1-7 day
Description: Inhibition of LSD1 in human NCI-H526 cells assessed as change in IGFBP2 gene expression treated for 1 to 7 days by qRT-PCR analysis

[24] = Effect on cleaved PARP level in human NCI-H1694 cells assessed as fold change at 100 nM measured after 10 days by Western blot analysis (reference value: 1.00); assay type: functional; conditions: time 10 day
[25] = Effect on cleaved PARP level in human NCI-H510 cells assessed as relative expression at 100 nM measured after 7 days by Western blot analysis (reference value: 0.24); assay type: functional, NCI-H510A; conditions: time 7 day
[26] = Effect on cleaved PARP level in human NCI-H69 cells assessed as fold change at 10 nM measured after 10 days by Western blot analysis (reference value: 1.00); assay type: functional; conditions: time 10 day
[27] = Effect on cleaved PARP level in human NCI-H510 cells assessed as relative expression at 100 nM measured after 14 days by Western blot analysis (reference value: 0.01); assay type: functional, NCI-H510A; conditions: time 14 day
[28] = Effect on cleaved PARP level in human NCI-H524 cells assessed as fold change at 100 nM measured after 10 days by Western blot analysis (reference value: 1.00); assay type: functional; conditions: time 10 day
[29] = Effect on cleaved PARP level in human NCI-H2171 cells assessed as relative expression at 1000 nM measured after 14 days by Western blot analysis (reference value: 0.01); assay type: functional; conditions: time 14 day
[30] = system: NCI-H446; assay: Effect on NCAM gene expression in human NCI-H446 cells at 1 uM measured after 4 days by qRT-PCR analysis; assay type: functional, cell-based; conditions: time 4.0 day
[31] = system: NCI-H146; assay: Effect on NSE gene expression in human NCI-H146 cells at 1 uM measured after 4 to 7 days by qRT-PCR analysis; assay type: functional, cell-based; conditions: time 4-7 day
[32] = Effect on cleaved PARP level in human NCI-H69 cells assessed as fold change at 100 nM measured after 14 days by Western blot analysis (reference value: 1.00); assay type: functional; conditions: time 14 day
[33] = Effect on cleaved PARP level in human NCI-H69 cells assessed as relative expression at 10 nM measured after 7 days by Western blot analysis (reference value: 0.02); assay type: functional; conditions: time 7 day
[34] = Toxicity in mouse xenografted with human NCI-H526 cells assessed as drug tolerance at 1.5 mg/kg, po administered daily measured for 30 days; assay type: organism-based; conditions: in vivo, 720 h, time 30 day
[35] = system: NCI-H1417; assay: Antitumor activity against human NCI-H1417 cells xenografted in nude mouse assessed as tumor growth inhibition at 1.5 mg/kg, po administered daily measured twice weekly relative to control; assay type: functional; conditions: read-out: TGI
[36] = Effect on cleaved PARP level in human NCI-H1417 cells assessed as fold change at 1000 nM measured after 14 days by Western blot analysis (reference value: 1.00); assay type: functional; conditions: time 14 day

`O=C(O)c1ccc(CN2CCC(CN[C@@H]3C[C@H]3c3ccccc3)CC2)cc1` [GSK2879552] gave an Activity [1] of 0.16, an Activity [2] of 0.79 and an Activity [3] of 2.65. For the same compound, the “fold change (FC)” value [4] was 1.68, the “fold change (FC)” value [5] was 1.77 and the “fold change (FC)” value [6] was 0.6. The “fold change (FC)” value [7] was 1.3, the Activity [8] was 1.09 and the Activity [9] was 0.36. The inhibition in vivo at 1.5 mg/kg [10] was 69%, the Ki [11] was 520 µM and the Activity [12] was “Toxic”. The Activity [13] was 0.08, the “fold change (FC)” value [14] was 1.44 and the “fold change (FC)” value [15] was 2.61. For the same compound, the Activity [16] was 0.21, the Activity [17] was 2.21 and the “fold change (FC)” value [18] was 2.77. The Activity [19] was “inactive”, the Activity [20] was 0.28 and the IC50 [21] was 20 µM. The “fold change (FC)” value [22] was 0.45, the inhibition [23] was “Dose-Dependent Effect” and the “fold change (FC)” value [24] was 0.75. For the same compound, the Activity [25] was 0.43, the “fold change (FC)” value [26] was 1.74 and the Activity [27] was 0.52. For the same compound, the “fold change (FC)” value [28] was 0.71, the Activity [29] was 0.02 and the Activity [30] was “inactive”. For the same compound, the Activity [31] was “inactive”, the “fold change (FC)” value [32] was 5.03 and the Activity [33] was 0.02. For the same compound, the Activity [34] was “Non-Toxic”, the inhibition in vivo at 1.5 mg/kg [35] was 83% and the “fold change (FC)” value [36] was 1.1.
